Experimental data published in ChEMBL document CHEMBL3745606, “Dissection of N,N-diethyl-N'-phenylpiperazines as α7 nicotinic receptor silent agonists” (Bioorg Med Chem, 2016).
Active and inactive are the calls of the source. The calls are words filed in the database; no cut-off is given here.

What was measured:
[1] = target: Neuronal acetylcholine receptor subunit alpha-7 (Homo sapiens) (UniProt P36544); assay: Agonist activity at human alpha7 nAChR expressed in xenopus oocytes assessed as potentiation of PNU-120596-induced PAM-sensitive desensitization at 30 uM by two-electrode voltage clamp electrophysiology relative to acetylcholine; type: cell-based
[2] = target: T1, Neuronal acetylcholine receptor; alpha3/beta4 (Homo sapiens) (UniProt P30926+P32297); assay: Partial agonist activity at human alpha3beta4 nAChR expressed in xenopus oocytes assessed as induction of PAM-sensitive desensitization at 30 uM by two-electrode voltage clamp electrophysiology relative to acetylcholine; type: cell-based
[3] = target: Neuronal acetylcholine receptor subunit alpha-7 (Homo sapiens) (UniProt P36544); assay: Agonist activity at human alpha7 nAChR expressed in xenopus oocytes assessed as induction of PAM-sensitive desensitization at 30 uM by two-electrode voltage clamp electrophysiology relative to acetylcholine; type: cell-based
[4] = target: Neuronal acetylcholine receptor subunit alpha-7 (Homo sapiens) (UniProt P36544); assay: Partial agonist activity at human alpha7 nAChR expressed in xenopus oocytes assessed as induction of PAM-sensitive desensitization at 30 uM by two-electrode voltage clamp electrophysiology relative to acetylcholine; type: cell-based
[5] = target: Neuronal acetylcholine receptor subunit alpha-7 (Homo sapiens) (UniProt P36544); assay: Partial agonist activity at human alpha7 nAChR expressed in xenopus oocytes assessed as potentiation of PNU-120596-induced PAM-sensitive desensitization at 30 uM by two-electrode voltage clamp electrophysiology relative to acetylcholine; type: cell-based
[6] = target: Neuronal acetylcholine receptor subunit alpha-7 (Homo sapiens) (UniProt P36544); assay: Partial agonist activity at human alpha7 nAChR expressed in xenopus oocytes assessed as induction of PAM-sensitive desensitization by measuring ratio of peak current to net charge at 30 uM by two-electrode voltage clamp electrophysiology relative to acetylcholine; type: cell-based
[7] = target: T2, Neuronal acetylcholine receptor; alpha4/beta2 (Homo sapiens) (UniProt P17787+P43681); assay: Antagonist activity at alpha4beta2 nAChR (unknown origin) at 100 uM; type: protein-complex assay
[8] = target: T2, Neuronal acetylcholine receptor; alpha4/beta2 (Homo sapiens); assay: Partial agonist activity at alpha4beta2 nAChR (unknown origin) at 100 uM; type: protein-complex assay
[9] = target: T1, Neuronal acetylcholine receptor; alpha3/beta4 (Homo sapiens); assay: Antagonist activity at human alpha3beta4 nAChR expressed in xenopus oocytes at 100 uM by two-electrode voltage clamp electrophysiology; type: cell-based

Sequence of Neuronal acetylcholine receptor subunit alpha-7 (Homo sapiens) (P36544 whole entry): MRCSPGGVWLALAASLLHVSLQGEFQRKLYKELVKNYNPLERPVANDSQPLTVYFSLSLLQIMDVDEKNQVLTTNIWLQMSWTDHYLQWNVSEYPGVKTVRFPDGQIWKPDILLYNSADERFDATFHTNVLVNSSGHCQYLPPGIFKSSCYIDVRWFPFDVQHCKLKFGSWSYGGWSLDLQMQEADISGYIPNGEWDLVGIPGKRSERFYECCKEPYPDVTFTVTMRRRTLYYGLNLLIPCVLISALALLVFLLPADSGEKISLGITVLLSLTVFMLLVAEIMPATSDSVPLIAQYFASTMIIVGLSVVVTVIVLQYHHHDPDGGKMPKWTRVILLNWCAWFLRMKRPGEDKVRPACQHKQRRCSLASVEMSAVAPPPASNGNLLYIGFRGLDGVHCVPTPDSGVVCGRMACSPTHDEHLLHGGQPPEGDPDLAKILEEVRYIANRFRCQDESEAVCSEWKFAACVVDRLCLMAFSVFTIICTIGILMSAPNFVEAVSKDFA

| SMILES | Activity [1] [%] | fold change (FC) [1] | Activity [2] | fold change (FC) [3] | fold change (FC) [4] | Activity [5] [%] | fold change (FC) [5] | Ratio [6] | Activity [7] | Activity [8] | Activity [9] |
| --- | --- | --- | --- | --- | --- | --- | --- | --- | --- | --- | --- |
| CC[N+]1(CC)CCN(c2cccc(F)c2)CC1 | < 10 | 0.2 | inactive | 0.061 | – | – | – | – | – | – | – |
| CC[N+]1(CC)CCN(c2ccccc2)CC1 | < 10 | 1.3 | – | 0.002 | – | – | – | – | – | – | – |
| CC[N+]1(CC)CCN(c2ccc(OC)cc2)CC1 | < 10 | 11.6 | inactive | 0.063 | – | – | – | – | – | – | – |
| CC[N+]1(CC)CCN(c2ccc(Br)cc2)CC1 | < 10 | 12.3 | – | 0.27 | – | – | – | – | – | – | – |
| CC[N+]1(CC)CCN(c2ccccc2C)CC1 | – | – | – | – | 0.319 | < 10 | 16.4 | 0.46 | – | – | – |
| CC[N+]1(CC)CCN(c2ccc(C(F)(F)F)cc2)CC1 | < 10 | 61.8 | inactive | 0.032 | – | – | – | – | inactive | inactive | – |
| CC[N+]1(CC)CCN(c2cccc(C(N)=O)c2)CC1 | < 10 | 50.7 | inactive | 0.056 | – | – | – | – | – | – | – |
| CC[N+]1(CC)CCC(Nc2ccccc2)CC1 | < 10 | 5.6 | inactive | 0.002 | – | – | – | – | – | – | – |
| CC[N+]1(CC)CCN(c2cccc(Cl)c2)CC1 | < 10 | 4.2 | inactive | 0.02 | – | – | – | – | – | – | – |
| CC[N+]1(CC)CCN(c2ccc(C)cc2)CC1 | < 10 | 3.6 | inactive | 0.011 | – | – | – | – | – | – | – |
| CC[N+]1(CC)CCN(c2cccc(C#N)c2)CC1 | < 10 | 1.5 | inactive | 0.022 | – | – | – | – | – | – | – |
| CC[N+]1(CC)CCN(c2cccc(OC)c2)CC1 | < 10 | 0.6 | inactive | 0.011 | – | – | – | – | – | – | Active |
| CC[N+]1(CC)CCN(c2cccc(C)c2)CC1 | < 10 | 0.2 | inactive | 0.001 | – | – | – | – | – | – | – |
| CC[N+]1(CC)CCN(c2cccc(Br)c2)CC1 | < 10 | 10 | inactive | 0.04 | – | – | – | – | inactive | inactive | – |
| CC[N+]1(CC)CCN(c2ccc3ccccc3c2)CC1 | – | – | – | – | 0.143 | < 10 | 15.9 | 0.71 | – | – | – |
| CC[N+]1(CC)CCN(c2cccc(O)c2)CC1 | – | – | – | – | 0.283 | < 10 | 31.4 | 0.67 | – | – | – |
| CC[N+]1(CC)CCN(c2cccc(C(F)(F)F)c2)CC1 | < 10 | 3.1 | inactive | 0 | – | – | – | – | – | – | – |
| CC[N+]1(CC)CCN(c2ccc(Cl)cc2)CC1 | – | – | – | – | 0.234 | < 10 | 18.3 | 0.71 | – | – | – |
| CC[N+]1(CC)CCN(c2ccc(C(N)=O)cc2)CC1 | < 10 | 43.9 | inactive | 0.065 | – | – | – | – | – | – | – |
| CCN1CCN(c2cccc(Br)c2)CC1 | < 10 | 6.9 | inactive | 0 | – | – | – | – | – | – | – |
| CCN1CCN(c2cccc(Cl)c2)CC1 | < 10 | 0.1 | inactive | 0.009 | – | – | – | – | – | – | – |
| CC[N+]1(CC)CCN(c2ccc(OC)cc2OC)CC1 | < 10 | 1.1 | – | 0.014 | – | – | – | – | – | – | – |
| CC[N+]1(CC)CCN(c2ccccc2Cl)CC1 | – | – | – | – | 0.367 | < 10 | 36.6 | 0.63 | – | – | – |
| CCN1CCN(c2ccc(F)cc2)CC1 | < 10 | 0 | inactive | 0 | – | – | – | – | – | – | – |
| CC[N+]1(CC)CCN(c2ccc(C#N)cc2)CC1 | – | – | – | – | 0.234 | < 10 | 68 | 0.43 | – | – | – |
| CC[N+]1(CC)CCN(c2ccc(F)cc2)CC1 | < 10 | 22.9 | inactive | 0.01 | – | – | – | – | – | – | – |
| CCN1CCN(c2ccc(C(F)(F)F)cc2)CC1 | < 10 | 1.4 | inactive | 0 | – | – | – | – | – | – | – |
| CC[N+]1(CC)CCC(=Cc2ccccc2)CC1 | < 10 | 9.9 | inactive | 0.071 | – | – | – | – | – | – | – |
